Data on five compounds can be found in patent publication US6759402B2, “Cyclic felbamate derived compounds” (University of Virginia Patent Foundation, priority 1999, dated 2004).

Marks after values point to notes of the source that are not given here.

For data set [1], the system named is MES-induced seizure spread. Nature of the data set: Maximal Electroshock Seizure (MES) test, mice i.p. The data set is classed as in vivo. As to conditions: for MES: number of animals protected/total number of animals tested: mice i.p. The source says: (§1) The fluoro derivatives synthesized were submitted to the National Institute of Neurological Disorders and Stroke (NINDS) for evaluation in a standard panel of assays. Two convulsant tests (MES and scMET), and a toxicity screen (rotorod in mice, positional sense and gait in rats) were employed for evaluating the compounds activity as neuroprotecting agents. These testing procedures are described in detail in Molecular and Cellular Targets for Anti-epileptic Drugs, eds. G. Avanzini, G. Regesta, P. Tanganelli, M. Avoli, 1997, John Libbey & Company Ltd, pp 191-198. The felbamate derivatives were evaluated for anticonvulsant activity following intraperitoneal (i.p.) administration in mice and oral administration in rats.
(§2) The MES test is a model for generalized tonic-clonic seizures and is used to identify compounds which prevent seizure spread. The behavioral and electrographic seizures generated in this model are consistent with the human disorder. In the MES test, an electrical stimulus of 0.2 s in duration (50 mA in mice and 150 mA in rat at 60 Hz) was delivered via corneal electrodes primed with an electrolyte solution containing an anesthetic agent. Mice were tested at 30 minutes and 4 hours following doses of 30, 100 and 300 mg/kg of test compound. Rats were tested at time intervals between 0.25 and 4 hours following a standard oral dose of 30 mg/kg. Abolition of the hindlimb tonic extensor component indicates the test compound's ability to inhibit MES-induced seizure spread.
(§3) For the MES and scMET tests the data is presented in the form of the number of animals protected by the administered compound/total number of animals tested. […] Qualitative data was obtained for fluoro felbamate 12 (Tables 1 and 2A), fluoro monocarbamate felbamate 13 (Tables 1 and 2B), and flourodioxo 16 (Tables 1 and 2C) and for cyclic felbamate 21 (Tables 5 and 6B) and cyclic monocarbamate 22 (Tables 5 and 6A). More extensive quantitative data was also obtained for fluoro felbamate 12 in mice (Table 3) and rats (Table 4).

The subject of data set [2] is pentylenetetrazol-induced clonic seizures. Nature of the data set: Subcutaneous Metrazol seizure test (scMET), mice i.p. The data set is classed as in vivo, Carworth Farms No. 1 mice.
From the text: as §1
This is a model that primarily identifies compounds that raise seizure threshold. With some minor exceptions, the pharmacological profile of the scMET seizure model is consistent with the human condition. The scMET test utilizes a dose of pentylenetetrazol (85 mg/kg in Carworth Farms No. 1 mice and 70 mg/kg in Sprague-Dawley rats) that induces clonic seizures lasting for a period of at least five seconds in 97% (CD97) of animals tested. At the anticipated time of testing the convulsant is administered subcutaneously. The test compound is administered intraperitoneally in mice and orally in rats. Animals are observed over a 30 minute period. Absence of clonic spasms in the observed time period indicates a compound's ability to abolish the effect of pentylenetetrazol on seizure threshold.
as §3

The test system of data set [3] is mice (rotorod). Nature of the data set: Minimal neurotoxicity (TOX), rotorod test, mice i.p. Type of data set: in vivo. As to conditions: for TOX: number of animals exhibiting toxic effects/total number of animals tested: mice i.p.
From the text: as §1, with “G. Avanzini, G. Regesta, P. Tanganelli, M. Avoli, 1997, John Libbey & Company Ltd, pp 191-198.” left out, “rats. […]” for “rats.”

The subject of data set [4] is MES-induced seizure spread. Briefly: Maximal Electroshock Seizure (MES) test, rats p.o. As to conditions: for anti-seizure activity in rats: rat models; for MES: number of animals protected/total number of animals tested: rat p.o.; for MES: number of animals protected/total number of animals tested / MES protection: 30 mg/kg; for MES protection: rats, oral, several timepoints. The data set is classed as in vivo.
From the text: as §1, §2, §3

Data set [5] concerns rats (positional sense, gait and stance). Briefly: Minimal neurotoxicity (TOX), positional sense and gait and stance tests, rats p.o. The data set is classed as in vivo. As to conditions: for TOX: number of animals exhibiting toxic effects/total number of animals tested: rat p.o., 30 mg/kg.
From the text: as §1, with “G. Avanzini, G. Regesta, P. Tanganelli, M. Avoli, 1997, John Libbey & Company Ltd, pp 191-198.” left out
Rats are examined for behavioral toxicity by the positional sense test and a gait and stance test. […] In the gait and stance test, neurotoxicity is indicated by a circular or zigzag gait, ataxia, abnormal spread of the legs, abnormal posture, tremor hyperactivity, lack of exploratory behavior, somnolence, stupor or catalepsy.
For the MES and scMET tests the data is presented in the form of the number of animals protected by the administered compound/total number of animals tested.

In data set [6] the test system is hippocampal kindled focal seizures. Briefly: Hippocampal kindling model, kindled rats i.p. The data set is classed as in vivo, adult male Sprague-Dawley rats. The conditions noted are these: for Number Protected/Number Tested: Dose Responses table. The source says:
The hippocampal kindling model can be used to evaluate a compound's ability to affect both the expression and acquisition of focal seizures. The hippocampal kindling paradigm as described by Lothman and Williamson (Lothman, 1994) allows the temporal effects of a drug to be evaluated in a single animal. This procedure requires the surgical placement of bipolar electrodes in the ventral hippocampus of adult male Sprague-Dawley rats. Stage five behavioral seizures are produced by using a stimulus consisting of a 50 Hz, 10 s train of 1 ms biphasic 200 uA pulses delivered every 30 min for 6 hours (12 stimuli per day) on alternating days for a total of 60 stimulations (five stimulus days). Prior to evaluating a candidate's anticonvulsant activity, a drug free control period consisting of supramaximal stimulations are recorded to verify the stability of a stage five generalized seizure.
A single dose of the candidate compound is then administered intraperitoneally (i.p.), 15 min following the last control stimulation. The anticonvulsant activity of the drug is assessed every 30 min for three to four hours starting 15 min after administering the test material. After each stimulation, individual Racine seizure scores and afterdischarge durations are recorded. Rats are used again in drug trials after four to five drug- and stimulus-free days.

A short description of data set [7]: Stability of oxazinane-dione at relevant pH. The data set is classed as physicochemical.

For `NC(=O)OCC1(c2ccccc2)COC(=O)N1` (stereo not drawn) [cyclic felbamate], the “MES: number of animals protected/total number of animals tested” value in data set [1] (30 mg/kg, 0.5 h) is 0/1; in data set [1] (30 mg/kg, 4.0 h), 0/1; in data set [1] (100 mg/kg, 0.5 h), 0/3; in data set [1] (100 mg/kg, 4.0 h), 0/3; in data set [1] (300 mg/kg, 0.5 h), 0/1; in data set [1] (300 mg/kg, 4.0 h) it was 0/1. Besides, the “MES: number of animals protected/total number of animals tested” value was 2/4 in data set [4] (0.25 h); 2/4 in data set [4] (0.5 h); 3/4 in data set [4] (1.0 h); 0/4 in data set [4] (2.0 h); 3/4 in data set [4] (4.0 h). Besides, the “ScMET: number of animals protected/total number of animals tested” value in data set [2] (30 mg/kg, 0.5 h) is on record as 0/1; in data set [2] (30 mg/kg, 4.0 h), 0/1; in data set [2] (100 mg/kg, 0.5 h) it was 0/1; in data set [2] (100 mg/kg, 4.0 h), 0/1; in data set [2] (300 mg/kg, 0.5 h) it was 0/1; in data set [2] (300 mg/kg, 4.0 h), 0/1. In addition, the “TOX: number of animals exhibiting toxic effects/total number of animals tested” value is 0/4 in data set [3] (30 mg/kg, 0.5 h); 0/2 in data set [3] (30 mg/kg, 4.0 h); 0/8 in data set [3] (100 mg/kg, 0.5 h); 0/4 in data set [3] (100 mg/kg, 4.0 h); 0/4 in data set [3] (300 mg/kg, 0.5 h); 0/2 in data set [3] (300 mg/kg, 4.0 h). Besides, the “TOX: number of animals exhibiting toxic effects/total number of animals tested” value in data set [5] (0.25 h), in data set [5] (0.5 h), in data set [5] (1.0 h), in data set [5] (2.0 h) and in data set [5] (4.0 h) was 0/4 each time. Moreover, the “anti-seizure activity in rats” value in data set [4] is given as “potent activity”.

`O=C1NC(=O)C(F)(c2ccccc2)CO1` (stereo not drawn) [fluoro dioxo, 5-Fluoro-5-phenyl-1,3-oxazinane-2,4-dione]: the “anti-seizure activity in mice” value in data set [1] (mice) was “inactive”. The “anti-seizure activity in rats” value in data set [4] was “strong anti-seizure activity”.

Consider `NC(=O)OCC(F)(COC(N)=O)c1ccccc1` [fluoro felbamate, 2-Fluoro-2-phenyl-1,3-propanediol dicarbamate], for which the “MES protection” value in data set [1] (mice, 30 mg/kg, at both 30 minutes and 4 hours) was “MES protective effects”; in data set [4], “full protection”. In addition, the “times more active than felbamate” value in data set [1] (test not specified) was 5-10 times. Moreover, the “dosage at which toxicity across time occurs” value in data set [3] (mice) is recorded as at least 300 mg/kg. For the same compound, the “toxic effects” value in data set [3] (mice, 30 mg/kg, 30 minute timepoint) is given as “some toxic effects”. For the same compound, the safety ratio entry in data set [3] (mice, quantitative results (Table 3)) is “at least five”. In addition, the “TOX ED50” value is recorded as 115 mg/kg in data set [3] (mouse, I.P.) and over 500 mg/kg in data set [5] (rat, p.o.). In addition, the “no toxicity at doses up to” value in data set [5] (oral administration to rats) was “up to 500 mg/kg”. In addition, the “Number Protected/Number Tested” value in data set [6] (25 mg/kg) is listed as 0/7; in data set [6] (50 mg/kg), 3/7; in data set [6] (100 mg/kg) it was 7/8^a. Moreover, the “afterdischarge duration” value in data set [6] (kindled rats, 100 mg/kg) is “corresponding decrease in afterdischarge duration”. For the same compound, the “seizure score” value in data set [6] (kindled rats, 100 mg/kg) is given as “significant drop in seizure score”.

On to `NC(=O)OCC(F)(CO)c1ccccc1` (stereo not drawn) [fluoro monocarbamate felbamate, 2-Fluoro-2-phenyl-1,3-propanediol monocarbamate], for which the “MES protection” value in data set [1] (mice, 100 mg/kg) is “moderate MES protection”; in data set [4], “protection is seen at several different timepoints”.

As to `O=C1NC(=O)C(c2ccccc2)CO1` (stereo not drawn) [oxazinane-dione 9], in data set [7], the “stability at relevant pH” value is reported as “unstable”.
